Equivalent point and solubility data for 1 compound are collected here from patent US6277829A, “Process for preparing of aqueous formulation for opthalmic use” (S.I.F.I. Societa Industria Farmaceutica Italiana S.p.A., priority 1999, dated 2001).

A value given as a limit tells only on which side of the number the result lay.

Series [1] is described as follows: titration of azithromycin and clarithromycin, dispersed in water, with citric acid (FIG. 1, FIG. 2). Type of series: physicochemical. The note with it: titration with citric acid.
Series [2] in a line: solubility in aqueous solution. Type of series: physicochemical. The note with it: water; compared with azithromycin; read-out: maximum concentration in water. The source says:
Formulations containing azithromycin at concentration ranging from 0.01 to 10% w/v, more particularly between 0.3 and 5% w/v, are the most preferred.

For the compound `CC[C@H]1OC(=O)[C@H](C)[C@@H](O[C@H]2C[C@@](C)(OC)[C@@H](O)[C@H](C)O2)[C@H](C)[C@@H](O[C@@H]2O[C@H](C)C[C@H](N(C)C)[C@H]2O)[C@](C)(OC)C[C@@H](C)C(=O)[C@H](C)[C@@H](O)[C@]1(C)O` [clarithromycin], in series [1], the equivalent point is recorded as around 4.5 pH. Further, in series [2], the solubility is below 20 mg/mL.
